From ChEMBL document CHEMBL3797140, “Acridin-3,6-dialkyldithiourea hydrochlorides as new photosensitizers for photodynamic therapy of mouse leukemia cells” (Bioorg Med Chem, 2016)
Activity calls are given as the source filed them. No cut-off for these calls is given here.

How the values were obtained:
[1] = test system: L1210; test: Phototoxicity against mouse L1210 cells assessed as cell viability preincubated for 1 hr followed by 1.05 J/cm2 UV-A irradiation measured after 48 hrs by MTT assay; type: functional, cell-based; conditions: L1210, light or radiation study
[2] = Dark toxicity against mouse L1210 cells assessed as cell viability after 48 hrs by MTT assay; type: cell-based
[3] = Dark toxicity against mouse NIH/3T3 cells assessed as cell viability after 48 hrs by MTT assay; type: cell-based, NIH3T3
[4] = Phototoxicity against mouse NIH/3T3 cells assessed as cell viability preincubated for 1 hr followed by 1.05 J/cm2 UV-A irradiation measured after 48 hrs by MTT assay; type: cell-based; conditions: NIH3T3, light or radiation study
[5] = test system: Calf thymus DNA; test: Binding affinity to calf thymus DNA by UV-visible spectrophotometry; type: nucleic-acid assay; conditions: Bos taurus
[6] = test system: L1210; test: Induction of ROS generation in mouse L1210 cells at 0.5 uM preincubated for 1 hr followed by 1.05 J/cm2 UV-A irradiation by fluorescence microscopy in presence of trolox; type: functional, cell-based
[7] = Octanol-water partition coefficient, logP of the compound; type: physicochemical
[8] = test system: L1210; test: Drug uptake in mouse L1210 cells at 1 uM after 15 mins to 6 hrs by fluorescence microscopy; type: ADME, cell-based; conditions: l1210, 1 µM
[9] = Drug uptake in plasma membrane of mouse L1210 cells at 1 uM after 1 to 6 hrs by fluorescence microscopy; type: ADME, cell-based; conditions: l1210, 1 µM
[10] = Drug uptake in cytosol of mouse L1210 cells at 1 uM after 1 to 6 hrs by fluorescence microscopy; type: ADME, cell-based
[11] = test system: L1210; test: Induction of cell cycle arrest in mouse L1210 cells assessed as accumulation at sub-G0 phase at 0.5 uM preincubated for 1 hr measured after 4 hrs by propidium iodide staining-based flow cytometry in absence of light (reference value: 16.6 +/- 0.4%); conditions: l1210, 4 h
[12] = test system: L1210; test: Induction of cell cycle arrest in mouse L1210 cells assessed as accumulation at sub-G0 phase at 1 uM preincubated for 1 hr measured after 4 hrs by propidium iodide staining-based flow cytometry in absence of light (reference value: 16.6 +/- 0.4%); conditions: l1210, 4 h
[13] = test system: L1210; test: Induction of cell cycle arrest in mouse L1210 cells assessed as accumulation at sub-G0 phase at 0.5 uM preincubated for 1 hr measured after 24 hrs by propidium iodide staining-based flow cytometry in absence of light (reference value: 16.6 +/- 0.4%); conditions: l1210, 24 h
[14] = test system: L1210; test: Induction of cell cycle arrest in mouse L1210 cells assessed as accumulation at sub-G0 phase at 1 uM preincubated for 1 hr measured after 24 hrs by propidium iodide staining-based flow cytometry in absence of light (reference value: 16.6 +/- 0.4%); conditions: l1210, 24 h
[15] = test system: L1210; test: Induction of cell cycle arrest in mouse L1210 cells assessed as accumulation at sub-G0 phase at 0.5 uM preincubated for 1 hr followed by 1.05 J/cm2 UV-A irradiation measured after 4 hrs by propidium iodide staining-based flow cytometry (reference value: 16.8 +/- 0.6%); type: functional
[16] = test system: L1210; test: Induction of cell cycle arrest in mouse L1210 cells assessed as accumulation at sub-G0 phase at 1 uM preincubated for 1 hr followed by 1.05 J/cm2 UV-A irradiation measured after 4 hrs by propidium iodide staining-based flow cytometry (reference value: 16.8 +/- 0.6%); type: functional
[17] = test system: L1210; test: Induction of cell cycle arrest in mouse L1210 cells assessed as accumulation at sub-G0 phase at 0.5 uM preincubated for 1 hr followed by 1.05 J/cm2 UV-A irradiation measured after 24 hrs by propidium iodide staining-based flow cytometry (reference value: 16.8 +/- 0.6%); type: functional
[18] = test system: L1210; test: Induction of cell cycle arrest in mouse L1210 cells assessed as accumulation at sub-G0 phase at 1 uM preincubated for 1 hr followed by 1.05 J/cm2 UV-A irradiation measured after 24 hrs by propidium iodide staining-based flow cytometry (reference value: 16.8 +/- 0.6%); type: functional
[19] = test system: L1210; test: Induction of cytomorphological changes in mouse L1210 cells at 0.5 uM preincubated for 1 hr measured after 6 to 24 hrs by Hoechst 33342 staining-based fluorescence microscopy in the absence of light; type: cell-based; conditions: l1210, 0.5 µM
[20] = test system: L1210; test: Induction of cytomorphological changes in mouse L1210 cells assessed as cell shrinkage at 0.5 uM preincubated for 1 hr followed by 1.05 J/cm2 UV-A irradiation measured after 6 to 24 hrs by Hoechst 33342 staining-based fluorescence microscopy; type: functional
[21] = test system: L1210; test: Induction of cytomorphological changes in mouse L1210 cells assessed as condensed chromatin at 0.5 uM preincubated for 1 hr followed by 1.05 J/cm2 UV-A irradiation measured after 6 to 24 hrs by Hoechst 33342 staining-based fluorescence microscopy; type: functional, cell-based
[22] = test system: L1210; test: Induction of apoptosis in mouse L1210 cells assessed as late apoptotic cells at 0.5 uM preincubated for 1 hr followed by 1.05 J/cm2 UV-A irradiation measured after 24 hrs by Hoechst 33342 and propidium iodide staining-based fluorescence microscopy; type: functional, cell-based
[23] = test system: L1210; test: Phototoxicity in mouse L1210 cells at 0.5 uM preincubated for 1 hr followed by 1.05 J/cm2 UV-A irradiation measured after 6 hrs by lactate dehydrogenase leakage assay; type: functional, cell-based
[24] = test system: L1210; test: Phototoxicity in mouse L1210 cells at 1 uM preincubated for 1 hr followed by 1.05 J/cm2 UV-A irradiation measured after 24 hrs by lactate dehydrogenase leakage assay; type: functional, cell-based
[25] = test system: L1210; test: […] in mouse L1210 cells at 1 uM preincubated for 1 hr followed by 1.05 J/cm2 UV-A irradiation measured after 24 hrs by lactate dehydrogenase leakage assay; type: cell-based; conditions: l1210, 24 h
[26] = test system: L1210; test: Induction of DNA fragmentation in mouse L1210 cells at 0.5 to 1 uM preincubated for 1 hr followed by 1.05 J/cm2 UV-A irradiation measured after 6 hrs by agarose gel electrophoresis; type: functional, cell-based
[27] = test system: L1210; test: Induction of apoptosis in mouse L1210 cells at 0.5 uM preincubated for 1 hr followed by 1.05 J/cm2 UV-A irradiation measured after 5 hrs by Annexin Red based flow cytometry; type: functional

K [5]: 6.8 ×10⁵ /M
logP [7]: 1.28
Drug uptake [8]: Active
Drug uptake [9]: Not Active
Drug uptake [10]: Not Active
Activity [11]: 17.7%
Activity [12]: 17.2%
Activity [13]: 25.9%
Activity [14]: 21.1%
Structure (SMILES): CCCNC(=S)Nc1ccc2cc3ccc(NC(=S)NCCC)cc3nc2c1.Cl
IC50 [1]: 0.48 µM
IC50 at 48 h [2]: 5.7 µM
IC50 at 48 h [3]: 43.5 µM
IC50 [4]: 4.4 µM
Activity [6]: inactive
Activity [15]: 22.5%
Activity [16]: 32.5%
Activity [17]: 43.2%
Activity [18]: 47.9%
Activity [19]: Non-toxic
Activity [20]: Active
Activity [21]: Active
Activity [22]: Active
Activity [23]: inactive
Activity [24]: Active
Activity [25]: Non-toxic
Activity [26]: Active
Activity [27]: 24%
